PMC12561408, “AI‐Driven De Novo Design of Ultra Long‐Acting GLP‐1 Receptor Agonists” (Advanced Science, 2025)

How the values were obtained:
[1] = in vivo; conditions: male, SD, rat, 0.05 mg/kg; for level at 72 h: Plasma Conc. at 72 h; for level at 96 h: Plasma Conc. at 96 h
Description: B) half‐life (T1/2). C) the maximum plasma concentration (Cmax). […] F) time to Maximum Concentration (Tmax). […] Data were analyzed with the two‐sided Student's unpaired t test. ^* p < 0.05, ^** p < 0.01, ^*** p < 0.001.
Plasma samples were analyzed using LC‐MS/MS (Waters XEVO TQ‐XS), and pharmacokinetic parameters such as T1/2, Cmax, Tmax, AUC0‐t, and MRT0‐t were calculated using WinNonlin. The sample preparation and detailed information of LC‐MS/MS are shown in Table S5 (Supporting Information).

[2] = rat, in vivo; cited from earlier work
Description: According to a study by Novo Nordisk,^[ [39] ^] […] While the fatty acid chai ...

level at 2 h ([1]; Plasma Conc. at 2 h, animal 1): 241 ng/mL | level at 2 h ([1]; Plasma Conc. at 2 h, animal 2): 262 ng/mL | level at 2 h ([1]; Plasma Conc. at 2 h, animal 3): 272 ng/mL | level at 4 h ([1]; Plasma Conc. at 4 h, animal 1): 308 ng/mL | level at 4 h ([1]; Plasma Conc. at 4 h, animal 2): 275 ng/mL | level at 4 h ([1]; Plasma Conc. at 4 h, animal 3): 339 ng/mL | level at 8 h ([1]; Plasma Conc. at 8 h, animal 1): 321 ng/mL | level at 8 h ([1]; Plasma Conc. at 8 h, animal 2): 327 ng/mL | level at 8 h ([1]; Plasma Conc. at 8 h, animal 3): 341 ng/mL | level at 12 h ([1]; Plasma Conc. at 12 h, animal 1): 283 ng/mL | level at 12 h ([1]; Plasma Conc. at 12 h, animal 2): 278 ng/mL | level at 24 h ([1]; Plasma Conc. at 24 h, animal 1): 133 ng/mL | level at 24 h ([1]; Plasma Conc. at 24 h, animal 2): 135 ng/mL | level at 48 h ([1]; Plasma Conc. at 48 h, animal 1): 12.9 ng/mL | level at 48 h ([1]; Plasma Conc. at 48 h, animal 2): 13.4 ng/mL | level at 72 h ([1]; animal 1): 1.5 ng/mL | level at 72 h ([1]; animal 2): 1.8 ng/mL | level at 96 h ([1]; animal 1): 1 ng/mL | level at 96 h ([1]; animal 2): 0.3 ng/mL | level at 2 h ([1]; Plasma concentration at 2 h (mean)): 258 ng/mL | level at 4 h ([1]; Plasma concentration at 4 h (mean)): 307 ng/mL | level at 8 h ([1]; Plasma concentration at 8 h (mean)): 330 ng/mL | level at 12 h ([1]; Plasma concentration at 12 h (mean)): 280 ng/mL | level at 24 h ([1]; Plasma concentration at 24 h (mean)): 132 ng/mL | level at 48 h ([1]; Plasma concentration at 48 h (mean)): 13.9 ng/mL
SMILES: CC[C@H](C)[C@H](NC(=O)[C@H](Cc1ccccc1)NC(=O)[C@H](CCC(=O)O)NC(=O)[C@H](CCCCNC(=O)COCCOCCNC(=O)COCCOCCNC(=O)CC[C@H](NC(=O)CCCCCCCCCCCCCCCCC(=O)O)C(=O)O)NC(=O)[C@H](C)NC(=O)[C@H](C)NC(=O)[C@H](CCC(N)=O)NC(=O)CNC(=O)[C@H](CCC(=O)O)NC(=O)[C@H](CC(C)C)NC(=O)[C@H](Cc1ccc(O)cc1)NC(=O)[C@H](CO)NC(=O)[C@H](CO)NC(=O)[C@@H](NC(=O)[C@H](CC(=O)O)NC(=O)[C@H](CO)NC(=O)[C@@H](NC(=O)[C@H](Cc1ccccc1)NC(=O)[C@@H](NC(=O)CNC(=O)[C@H](CCC(=O)O)NC(=O)C(C)(C)NC(=O)[C@@H](N)Cc1cnc[nH]1)[C@@H](C)O)[C@@H](C)O)C(C)C)C(=O)N[C@@H](C)C(=O)N[C@@H](Cc1c[nH]c2ccccc12)C(=O)N[C@@H](CC(C)C)C(=O)N[C@H](C(=O)N[C@@H](CCCNC(=N)N)C(=O)NCC(=O)N[C@@H](CCCNC(=N)N)C(=O)NCC(=O)O)C(C)C [Semaglutide]
half‐life in rats (literature) [2]: 7 to 8 h
